Read-outs that look alike come from different tables or passages of the source.
Assays:
[1] = tested on: A. niger sulfhydryl oxidase; assay: Polarographic O2 depletion assay of sulfhydryl oxidase with thiol compounds and substrates of other oxidases; type: biochemical, Aspergillus niger; settings: for Activity toward substrates of other known oxidases: test compound 10 mM in 40 mM sodium acetate at pH 5.5; for kcat (app)/Km (app) (head is drawing 1) / kcat (app) / Km: purified enzyme, polarographic assay; for kcat (app) / Km: double reciprocal plot; for Km: read-out: Km (app)
Description: Two assays have been employed to determine SHX activity. The first assay is based on the depletion of O2 from assay mixtures containing thiol compounds; oxygen depletion is measured polarographically by oxygen electrode techniques. One unit of SHX is defined as that amount of enzyme which would utilize or consume 1 umol of O2 per minute under the conditions of the assay.
Rates of O2 depletion by the purified enzyme were measured at selected concentrations of GSH, cysteine, dithiothreitol and 2-mercapto-ethanol. […] Kinetic constants were calculated from the double reciprocal plot by linear regression fitting of the data points.
The enzyme was tested for activity toward substrates of other known oxidases, including D-glucose, D-fructose, L-lysine, D-lysine, benzylamine, xanthine, putrescine, catechol, nicotinamide adenine dinucleotide (reduced) ("NADH") and nicotinamide adenine dinucleotide phosphate (reduced) ("NADPH").
In a typical assay, 2.9 mL of a mixture consisting of a thiol compound in an appropriate buffer was equilibrated with stirring to 25° C. After the vial was sealed with the electrode, a volume of 0.1 mL of enzyme solution was injected into the assay mixture. […] One unit of sulfhydryl oxidase was defined as that amount of enzyme which would deplete 1 umole of O2 per minute under the conditions of the assay. Unless otherwise indicated, the assay mixture contained 8 mM GSH in 40 mM acetate buffer, pH 5.5, at 25° C.

sulfhydryl apooxidase = assay: Reactivation of sulfhydryl apooxidase by resolved flavins or standards; type: biochemical, Aspergillus niger; settings: for Activity: apooxidase after 14 hours incubation at 0° C. with resolved flavins or standards
Excerpt: At […], FAD is weakly fluorescent owing to quenching by its adenine moiety. FMN and other nonadenylated flavins, on the other hand, fluoresce strongly under both conditions of pH (Bessey et al., 1949); Cerletti and Siliprandi, 1958). Thus the ratio of fluorescence at basic pH to that at acidic pH distinguishes adenylated from nonadenylated flavins. […] When the isolated flavins were recombined with sulfhydryl apooxidase, only the product of treatment by boiling was capable of restoring activity to the enzyme.
Determination of sulfhydryl oxidase activity was based upon depletion of O2 from assay mixtures containing thiol compounds, as measured with a Yellow Springs Instruments oxygen monitor (model 500) equipped with a polarographic Clark-type electrodes. In a typical assay, 2.9 mL of a mixture consisting of a thiol compound in an appropriate buffer was equilibrated with stirring to 25° C. After the vial was sealed with the electrode, a volume of 0.1 mL of enzyme solution was injected into the assay mixture. The rate of oxygen depletion was constant during the first 30 seconds of the assay; thus, the initial rate of O2 depletion was taken to be sulfhydryl oxidase activity under the prevailing conditions. One unit of sulfhydryl oxidase was defined as that amount of enzyme which would deplete 1 umole of O2 per minute under the conditions of the assay. Unless otherwise indicated, the assay mixture contained 8 mM GSH in 40 mM acetate buffer, pH 5.5, at 25° C.
In reactivation experiments, freshly prepared apoenzyme was combined with flavin solution and 0.1M sodium phosphate buffer, pH 7.0, in the volume proportions 1:1:2. This mixture was incubated for 14 to 16 hours at 0° C. After the incubation period, the enzyme was separated from excess free flavin by passage through a Pharmacia PD-10 column equilibrated and eluted with 40 mM acetate buffer, pH 5.5.
The flavin component was also extracted from the enzyme by two other methods. Dialyzed sulfhydryl oxidase was boiled for 5 minutes with protection from light and cooled quickly by immersion in ice water. […]

[2] = tested on: A. niger sulfhydryl oxidase; assay: NAD/NADP as electron acceptors, absorbance at 340 nm; type: biochemical, Aspergillus niger; settings: in the presence of sulfhydryl oxidase and 4 mM GSH
[3] = tested on: A. niger sulfhydryl oxidase; assay: Sulfhydryl oxidase activity in presence of chelating agents; type: biochemical, Aspergillus niger; settings: 1 mM chelating agent in 0.05M phosphate buffer, pH 7.0, even after overnight incubation
Excerpt: Since flavin oxidases containing essential metal ions are known to exist, sulfhydryl oxidase was examined for changes in activity upon treatment with the chelating agents.

[4] = biological target: T1, flavin sulfhydryl oxidase from rat epididymal fluid (Rattus norvegicus, UniProt Q6IUU3); settings: concentrations as high as 0.1M; cited from earlier work
T1 construct: flavin sulfhydryl oxidase from rat epididymal fluid; host or cells: rat epididymal fluid as printed
T1 sequence (Q6IUU3 33-750): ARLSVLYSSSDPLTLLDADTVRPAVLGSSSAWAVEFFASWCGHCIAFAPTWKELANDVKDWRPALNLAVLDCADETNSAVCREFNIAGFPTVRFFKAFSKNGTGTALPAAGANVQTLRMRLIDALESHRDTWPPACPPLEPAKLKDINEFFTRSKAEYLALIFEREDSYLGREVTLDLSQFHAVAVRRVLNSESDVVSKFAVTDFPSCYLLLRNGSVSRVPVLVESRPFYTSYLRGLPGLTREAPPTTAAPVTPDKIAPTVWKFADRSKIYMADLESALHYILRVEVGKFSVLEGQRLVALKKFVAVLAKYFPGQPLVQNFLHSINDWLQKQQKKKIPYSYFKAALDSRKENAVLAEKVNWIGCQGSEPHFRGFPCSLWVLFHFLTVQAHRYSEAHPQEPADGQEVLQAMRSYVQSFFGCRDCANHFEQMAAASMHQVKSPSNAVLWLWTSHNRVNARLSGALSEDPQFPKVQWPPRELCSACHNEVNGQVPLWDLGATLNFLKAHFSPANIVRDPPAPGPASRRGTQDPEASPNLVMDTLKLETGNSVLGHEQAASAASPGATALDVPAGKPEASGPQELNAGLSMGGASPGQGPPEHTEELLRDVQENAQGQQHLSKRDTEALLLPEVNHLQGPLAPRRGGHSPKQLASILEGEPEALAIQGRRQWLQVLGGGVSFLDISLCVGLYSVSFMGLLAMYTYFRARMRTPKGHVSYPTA

[5] = biological target: A. niger sulfhydryl oxidase; assay: Spectral titration with sodium sulfite (flavin-sulfite complex); type: binding, Aspergillus niger; settings: read-out: Dissociation constant Kd of flavin-sulfite complex
Description: FIG. 3: Absorption spectra of purified sulfhydryl oxidase after reaction with sodium sulfite at pH 6, showing bleaching of the visible bond of SHX spectrum. Each spectrum was recorded 10 minutes after the addition of a small aliquot of sodium sulfite to a cuvette containing 1.8 mg/mL SHX in 50 mM sodium phosphate. Sulfite concentrations after each addition were 0 mM(1), 0.99 mM(2), 2.44 mM(3) and 152 mM(4).
Additional spectral analysis confirms that the SHX of the present invention is a flavoprotein. Most flavin oxidases, but not flavin dehydrogenases, react with sodium sulfite to form a bleached flavin-sulfite complex (Massey et al., 1969). The spectral change incurred by incubation of sulfhydryl oxidase with sodium sulfite at varying concentrations is show in FIG. 3. The dissociation constant Kd =[SHX][SO2 ]/[SHX-SO2 ]for the sulfhydryl oxidase flavin-sulfite complex was calculated from the first few spectra under the assumption that spectrum 4 in FIG. 3 represented full conversion of the enzyme to the sulfite complex, and that the initial excess of sulfite was so large that its concentration was essentially unchanged at equilibrium. The first assumption was justified by the fact that spectrum 4 (152.8 mM sulfite) was identical with the spectrum recorded when the sulfite concentration was just 42.8 mM (not shown).

Compound: NCc1ccccc1 [benzylamine]
- Activity toward substrates of other known oxidases [1]: failed to stimulate

Compound: Oc1ccccc1O [catechol]
- Activity toward substrates of other known oxidases [1]: failed to stimulate

Compound: O=c1[nH]c(=O)c2[nH]cnc2[nH]1 [xanthine]
- Activity toward substrates of other known oxidases [1]: failed to stimulate

Compound: Cc1cc2nc3c(=O)[nH]c(=O)nc-3n(C[C@H](O)[C@H](O)[C@H](O)COP(=O)(O)O)c2cc1C [Authentic FMN, flavin mononucleotide]
- Activity (sulfhydryl apooxidase): 0.0 units/mL
- Restoration of apooxidase activity toward GSH (sulfhydryl apooxidase; excess FMN, pH 3 to 9, various buffer salts): did not result in any detectable restoration of activity

Compound: NC(=O)c1ccc[n+]([C@@H]2O[C@H](COP(=O)([O-])OP(=O)(O)OC[C@H]3O[C@@H](n4cnc5c(N)ncnc54)[C@H](OP(=O)(O)O)[C@@H]3O)[C@@H](O)[C@H]2O)c1 [NADP]
- Electron acceptor, increase in absorbance at 340 nm [2]: did not act as electron acceptors

Compound: NC(=O)C1=CN([C@@H]2O[C@H](COP(=O)(O)OP(=O)(O)OC[C@H]3O[C@@H](n4cnc5c(N)ncnc54)[C@H](O)[C@@H]3O)[C@@H](O)[C@H]2O)C=CC1 [NADH, nicotinamide adenine dinucleotide (reduced)]
- Activity toward substrates of other known oxidases [1]: failed to stimulate

Compound: O=C(CO)[C@@H](O)[C@H](O)[C@H](O)CO [D-fructose]
- Activity toward substrates of other known oxidases [1]: failed to stimulate

Compound: N[C@@H](CS)C(=O)O [Cysteine]
- kcat (app)/Km (app) (head is drawing 1) [1]: 230 min^-1 M^- 1
- kcat (app) [1]: 166.2 s⁻¹
- Km [1]: 43 mM

Compound: c1cnc2c(c1)ccc1cccnc12 [o-phenanthroline]
- Change in sulfhydryl oxidase activity [3]: No activity decreases

Compound: NCCCC[C@H](N)C(=O)O [L-lysine]
- Activity toward substrates of other known oxidases [1]: failed to stimulate

Compound: Cc1cc2nc3c(=O)[nH]c(=O)nc-3n(C[C@H](O)[C@H](O)[C@H](O)COP(=O)(O)OP(=O)(O)OC[C@H]3O[C@@H](n4cnc5c(N)ncnc54)[C@H](O)[C@@H]3O)c2cc1C [Authentic FAD, flavin adenine dinucleotide]
- Activity (sulfhydryl apooxidase): 0.58 units/mL

Compound: OC[C@H]1OC(O)[C@H](O)[C@@H](O)[C@@H]1O (stereo partly drawn) [D-glucose]
- Activity toward substrates of other known oxidases [1]: failed to stimulate

Compound: OCCS [2-Mercaptoethanol]
- kcat (app)/Km (app) (head is drawing 1) [1]: 26 min^-1 M^- 1
- kcat (app) [1]: 145.2 s⁻¹

Compound: N[C@@H](CCC(=O)N[C@@H](CS)C(=O)NCC(=O)O)C(=O)O [Glutathione]
- kcat (app)/Km (app) (head is drawing 1) [1]: 26,000 min^-1 M^- 1
- kcat (app) [1]: 131.2 s⁻¹
- Km [1]: 0.3 mM

Compound: O[C@H](CS)[C@H](O)CS (racemic) [Dithiothreitol]
- kcat (app)/Km (app) (head is drawing 1) [1]: 110 min^-1 M^- 1
- kcat (app) [1]: 119 s⁻¹
- Km [1]: 66 mM

Compound: NC(=O)c1ccc[n+]([C@@H]2O[C@H](COP(=O)([O-])OP(=O)(O)OC[C@H]3O[C@@H](n4cnc5c(N)ncnc54)[C@H](O)[C@@H]3O)[C@@H](O)[C@H]2O)c1 [NAD]
- Electron acceptor, increase in absorbance at 340 nm [2]: did not act as electron acceptors

Compound: O=S([O-])[O-].[Na+].[Na+] [sodium sulfite]
- Reaction with sulfite (changes in visible spectrum) [4]: failed to react
- Kd ([5]; from spectrum 1 of FIG. 3, pH 6, 50 mM sodium phosphate): 3040 µM
- Kd ([5]; from spectrum 2 of FIG. 3, pH 6, 50 mM sodium phosphate): 2950 µM

Compound: Oc1cccc2cccnc12 [8-hydroxyquinoline]
- Change in sulfhydryl oxidase activity [3]: No activity decreases

Compound: NCCCC[C@@H](N)C(=O)O [D-lysine]
- Activity toward substrates of other known oxidases [1]: failed to stimulate

Compound: NC(=O)C1=CN([C@@H]2O[C@H](COP(=O)(O)OP(=O)(O)OC[C@H]3O[C@@H](n4cnc5c(N)ncnc54)[C@H](OP(=O)(O)O)[C@@H]3O)[C@@H](O)[C@H]2O)C=CC1 [NADPH, nicotinamide adenine dinucleotide phosphate (reduced)]
- Activity toward substrates of other known oxidases [1]: failed to stimulate

Compound: NCCCCN [putrescine]
- Activity toward substrates of other known oxidases [1]: failed to stimulate
